Data taken from PMC12040169 (PLOS Biology, 2025).

Experiment: in vitro
Details: human, hela cells, % viability

Structure (SMILES)	viability at 28.5 h, 10 µM [%]	viability at 28.5 h, 10 µM (bulk resorufin, single well) [%]
OCCN(CC#CCC(O)(c1ccccc1)c1ccccc1)CCO [CBK263623]	94.1	
O=C(NCCN1CCOCC1)c1cc(-c2cccc(Br)c2)nc2ccccc12 [CBK263625]	90.2	
COc1cc2nc3c4ccccc4n(CC(=O)O)c3nc2cc1OC [CBK263626]	86.8	
COc1ccc(OC(C)C(=O)Nc2cc(OC)c(Cl)cc2OC)cc1 (centres unmarked) [CBK263627]	96	
COC(=O)CCNc1nc(-c2ccc(Br)cc2)nc2ccccc12 [CBK263628]	97.9	
O=C(NCCCN1CCOCC1)c1c(Cl)cccc1Cl [CBK263631]	93	
COc1ccc(CN2CCN(Cc3cc(Br)ccc3O)CC2)cc1OC [CBK263632]	95.5	
O=C(CCCN1C(=O)/C(=C\c2cccs2)SC1=S)Nc1cccc(C(=O)O)c1 [CBK263636]	98.4	
O=C(c1cccnc1)N1CCN(CCN2C(=O)C3C4C=CC(C4)C3C2=O)CC1 (centres unmarked) [CBK263639]	98.2	
COc1ccc(CN2CCN(Cc3cc(Br)ccc3O)CC2)cc1 [CBK263640]		99.4
CC(C)(C)c1ccc(/C=C/C(=O)n2cccn2)cc1 [CBK263645]	85.7	
COc1ccc(C2CC(=O)C(=CNCCCN3CCOCC3)C(=O)C2)cc1 (centres unmarked) [CBK263647]	84.9	
Cc1ccc(C)c(NC(=O)c2sc3cc(C)ccc3c2Cl)c1 [CBK263648]	90.3	
Cc1ccnc(NS(=O)(=O)c2ccc(NC(=O)c3cc(-c4ccc(Br)cc4)nc4ccccc34)cc2)n1 [CBK263650]	96.8	
CCOc1ccc(/N=c2\scc(-c3ccc(OC)c(Br)c3)n2CCc2ccccc2)cc1 [CBK263654B]	74.7	
COc1cc(/C=C2/SC(=S)N(CCC(=O)N3CCN(C)CC3)C2=O)cc(OC)c1OC [CBK263656]	88.1	
COc1ccc(NC(=O)CSc2nc(O)cc(-c3ccccc3)n2)cc1OC [CBK263657]	96.1	
Cc1cc(OCC(=O)NCc2cccnc2)cc(C)c1Cl [CBK263658]	86.5	
CCNC(=S)N1CCN(CCNC=C2C(=O)CC(C)(C)CC2=O)CC1 [CBK263661]	90.1	
Oc1ccc(Br)cc1CN1CCN(Cc2cccc3ccccc23)CC1 [CBK263662]	87	
CCCCOC(=O)c1ccc(NC(=O)c2c(Cl)cccc2Cl)cc1 [CBK263664]	88.2	

Structure (SMILES)	viability at 28.5 h, 10 µM [%]	viability at 28.5 h, 10 µM (bulk resorufin, single well) [%]
O=C1CC(c2ccco2)CC(=O)C1=CNCCN1CCNCC1 (centres unmarked) [CBK263668]	99.7	
O=C(CCCN1C(=O)/C(=C\c2cccs2)SC1=S)Nc1cc(Cl)ccc1O [CBK263673]	99.5	
O=C(O)c1cc(-c2cccnc2)nc2ccc(Br)cc12 [CBK263674]	105	
O=C(O)C1C2CCC(O2)C1C(=O)Nc1ccc2c(c1)OCCO2 (centres unmarked) [CBK263677]	103	
Cc1ccc(CN2C(=O)CSC2c2cn(-c3ccccc3)nc2-c2ccccc2)cc1 (centres unmarked) [CBK263678]	94.5	
Cc1ccc(C(=O)O)cc1NC(=O)C1CCCCC1C(=O)O (centres unmarked) [CBK263679]	93.5	
COc1ccc(C(=O)NC(Nc2ccccc2)C(Cl)(Cl)Cl)cc1OC (centres unmarked) [CBK263680]	106	
O=C(O)CCC(=O)c1cccc([N+](=O)[O-])c1 [CBK263681]	101	
Cc1ccc2c(Cl)c(-c3nnc(-c4ccc(Cl)cc4)o3)sc2c1 [CBK263682]	106	
CCC12CN3CC(CC)(CN(C1)C3c1ccc([N+](=O)[O-])cc1)C2=O (centres unmarked) [CBK263689]	108	
O=C(CCCOc1ccccc1)Nc1ccc([N+](=O)[O-])cc1 [CBK263690]	97.9	
O=C(NC(=S)Nc1ccc2oc(-c3cccc4ccccc34)nc2c1)c1ccco1 [CBK263691]	95.5	
c1ccc(CCNc2c3c(nc4ccccc24)CCC3)cc1 [CBK263693C]	92.2	
O=C1c2ccccc2C(=O)N1CSc1nnc(SCN2C(=O)c3ccccc3C2=O)s1 [CBK263694]	96.9	
CC(C)(C)c1ccc(/C=N/NC(=O)CCSc2ccc(Cl)cc2)cc1 [CBK263696]	105	
O=C(Nc1cccc(C(=O)O)c1)/C(=C\c1ccc2c(c1)OCO2)NC(=O)c1ccccc1 [CBK263697]	113	
CN1CN=C2SC3(COC(c4cccc(Br)c4)OC3)C(=O)N2C1 (centres unmarked) [CBK263700]	93.1	
O=C(/C=C/c1ccccc1)ONC(=O)c1ccc(Cl)cc1 [CBK263702]	111	
COc1ccc(C2Nc3ccccc3C(=O)N2c2ccc(C)cc2)cc1Cn1nc(C)c([N+](=O)[O-])c1C (centres unmarked) [CBK263703]	106	
O=C(COc1ccc(C=C2C(=O)NC(=O)NC2=O)cc1)NCC1CCCO1 (centres unmarked) [CBK263709]		91.9
O=C(Nc1cccc(C(=O)O)c1)/C(=C\c1ccccc1)NC(=O)c1ccccc1Cl [CBK263710]	90.4	

Structure (SMILES)	viability at 28.5 h, 10 µM [%]	viability at 28.5 h, 10 µM (bulk resorufin, single well) [%]
Cc1ccc(-c2nn(-c3cc(N4CCN(CCO)CC4)ccc3[N+](=O)[O-])c(=O)c3ccccc23)cc1C [CBK263713]	82.6	
COC(=O)c1cc(Br)ccc1NC(=O)COc1ccccc1C [CBK263715]	89.4	
CC1CCN(S(=O)(=O)c2cc(S(=O)(=O)N3CCC(C)CC3)c3cccc4c3c2NC4=O)CC1 [CBK263716]	91.2	
O=C(Nc1cccc(C(=O)O)c1)/C(=C\c1ccc2c(c1)OCO2)NC(=O)c1ccc(Br)o1 [CBK263720]	99	
O=C(NCCCNc1ccc(C(F)(F)F)cc1[N+](=O)[O-])c1ccc(Cl)cc1 [CBK263721]	99	
O=C(Nc1ccc(C(=O)O)cc1)/C(=C\c1ccco1)NC(=O)c1ccccc1Cl [CBK263726]	113	
CN(C)CCNc1c2c(nc3ccccc13)CCC2 [CBK263732C]	98.1	
COCCN(CCOC)Cc1c(O)ccc2c3c(c(=O)oc12)CCC3 [CBK263733]	75.4	
COc1ccc(/C=N/NC(=O)c2cc[nH]n2)cc1CSc1nc2ccccc2s1 [CBK263734]	103	
O=C(COc1ccc(C=C2C(=O)NC(=O)NC2=O)cc1)NCc1ccccc1 [CBK263736]		93.3
N/C(=N\OC(=O)COc1ccc2ccccc2c1)c1ccncc1 [CBK263737]	89.1	
NC(=O)c1ccc(NC(=O)COc2ccc3ccccc3c2)cc1 [CBK263738]	101	
CC(C)C12CN3CC(C(C)C)(CN(C1)C3c1c[nH]c3ccccc13)C2=O (centres unmarked) [CBK263740]	96.1	
CS(=O)(=O)NCCCNc1ccc(C(F)(F)F)cc1[N+](=O)[O-] [CBK263741]	73.1	
O=C(/C=C/c1ccccc1)NC(=S)Nc1cccc(-c2nc3ncccc3o2)c1 [CBK263742]	103	
Cc1ccccc1Nc1nnc(-c2ccc(C(=O)NCCO)cc2)c2ccccc12 [CBK263743]	86.4	
Cc1cc(C)c(OCCOCCN2CCN(C)CC2)c(Cl)c1 [CBK263744G]	98.6	
Cn1cc(/C=C(\C(=O)O)C(C(=O)O)=C2C3CC4CC(C3)CC2C4)c2ccccc21 [CBK263749]	96.5	
O=C(Nc1ccc2ccccc2c1)c1ccccc1N(Cc1ccccc1)S(=O)(=O)c1ccccc1 [CBK263751]	91.5	
O=C(Nc1cccc2nsnc12)c1ccc(-c2ccc(Br)cc2)o1 [CBK263752]	95.9	
